Test results taken from EP1860116A1, “Trehalose conjugate with carnosine having antioxidant activity, stable to enzymatic hydrolysis, procedure for its preparation, and pharmaceutical, cosmetic and nutraceutical compositions that contain it” (Universita' Degli Studi Di Catania, priority 2006, dated 2007).

Legend:
[1] = tested on: carnosinase contained in rat brain homogenate; experiment: Enzymatic hydrolysis by brain carnosinase (rat brain homogenate, histidine quantified fluorometrically with OPA); format: in vitro ADME; settings: 20% rat brain homogenate, Tris buffer pH 8.1, 37°C for 2 h, compared with carnosine
Protocol: The breakdown of the carbohydrate conjugate of carnosine was measured by the following method: a 20% homogenate of rat brain was prepared with a 50 mM Tris buffer (Tris-(hydroxymethyl)-aminomethane) pH 8.1 containing 2 mM DTT (di-thio-threitol), and the mixture was centrifuged for 20 min at 19000 rpm. Part of the supernatant solution (192 µl) was incubated at 37°C for 2 h with the carnosine-trehalose conjugate, in a final volume of 300 µl. The reaction was interrupted by adding acetonitrile (300 µL), and the solution was subjected to double extraction with chloroform. The amount of histidine in the final solution was quantified fluorometrically after reacting with orthophthaldialdehyde OPA (Fluka), according to a method reported in Clin. Chim.

[2] = tested on: low-density lipoproteins (LDL); experiment: Antioxidant activity towards low-density lipoproteins (LDL): Cu2+-induced lipid peroxidation, MDA determined by HPLC; format: biochemical; settings: human LDL, peroxidation induced by copper (II) ions (40 µM), 4 h at 37°C, pH 7.4; conjugate at 5, 10, 20, 50, 100 and 200 µM; compared with carnosine
Protocol: In order to test the antioxidant activity of carnosine and the carbohydrate derivative, freeze-dried human LDL (Sigma) was used as lipid peroxidation target.
The MDA standard was obtained by hydrolysis of the bis-dimethylacetal derivative (Sigma) in 1% sulphuric acid.
The process of peroxidation of humane LDLs (Sigma), suspended in 20 mM ammonium acetate at pH 7.4, was triggered by the addition of Cu^2+ (40 µM) to the protein suspension, followed by a 4 h incubation at 37°C (Free Radic. Res. 35, 953, 2001; J. Agr. Food Chem. 45, 3362, 1997). The lipid peroxidation inhibiting effect of the trehalose-carnosine conjugate was evaluated by adding this molecule to the LDL-Cu^2+ system at increasing concentrations (5, 10, 20, 50, 100 and 200 µM). The peroxidation reaction was interrupted by adding an equal volume of acetonitrile, followed by double extraction with chloroform.
For the determination of MDA, the end product of lipid peroxidation, the aqueous extract was analysed by HPLC, using an analysis method reported in Anal. Biochem. 197, 191, 1991 (data reported in figure 1).

O=C(CCNC[C@H]1O[C@H](O[C@H]2O[C@H](CO)[C@@H](O)[C@H](O)[C@H]2O)[C@H](O)[C@@H](O)[C@@H]1O)N[C@@H](Cc1c[nH]cn1)C(=O)O [compound I, 6-(β-alanyl-L-histidine)-6-deoxy-α,α'-trehalose]
resistance to enzymatic hydrolysis by carnosinase [1]: more resistant to the carnosinase contained in rat brain homogenate than carnosine
resistance to enzymatic hydrolysis by carnosinase ([1]; listed as compound according to the invention): more resistant to enzymatic hydrolysis than carnosine
antioxidant activity (lipid peroxidation inhibiting effect) [2]: dose-dependent antioxidant effect, which was significantly greater than that of carnosine
